Legend:
[1] = niacin 1500 mg (roughly equimolar dose); niacin was no arm of the trial; cited from earlier work
[2] = ARI-001 concentrations in liver and adipose tissue vs plasma; format: in vivo, Golden Syrian hamster; details: HF/HS hamsters dosed 18 days; p<0.01
Protocol: Tissue samples were harvested from hamsters in the above-described 18-day experiment to determine the concentrations of ARI-001 in both liver and adipose tissue. Briefly, liver and adipose samples were harvested at the termination of the experiment; the samples were flash frozen in liquid nitrogen and then stored at −80° C. until used for analysis. To prepare for analysis, a sample of liver was excised from the frozen mass, weighed, and homogenized with a tissue grinder followed by sonication in buffer. The solid materials were then removed by centrifugation. To prepare for LC-MS analysis, the homogenate was then treated to the same preparation technique described for plasma preparation (vide supra). A sample of adipose was excised from the frozen mass, and transferred to a mortar and pestle cooled with liquid nitrogen. During grinding, liquid nitrogen was added to ensure the sample of adipose remained solid. The ground sample was transferred to a tared tube to weigh total sample. This ground sample was extracted with methanol, and this compound-containing methanol was separated from lipid by cooling to −20° C. […]
FIG. 8 graphs the correlation between concentrations of ARI-001 in plasma versus liver (left), and in plasma versus adipose (right). […] Pearson r was determined using all data points illustrated. P-value was determined for a 2-tailed t-test using all data points illustrated.

[3] = Multiple administration pharmacokinetic study of ARI-001 in wild type mice; format: in vivo, C57BL/6 mice; details: 996, 1493, 2240, 3360 mg/kg oral gavage daily, 30 days
Protocol: Wild type C57BL/6 mice were dosed with ARI-001 in solution via oral gavage daily for 30 consecutive days. Over the course of five 24-hour periods, blood was collected, and the resultant plasma was analyzed for concentrations of ARI-001. Four doses were used: 996 mg/kg, 1493 mg/kg, 2240 mg/kg, and 3360 mg/kg. […] However, these values were time-independent, as there was no trend observed between these parameters and days of administration. See FIGS. 15A-15D and FIGS. 16A-16B.

[4] = tested on: high fat-fed hamsters; assay: Plasma glucose in high fat-fed hamsters dosed 18 days; format: in vivo, Golden Syrian hamster; details: ARI-001 1120 and 2240 mg/kg
Protocol: These animals were dosed for 18 consecutive days, while being on a HF/HS diet for a total of nearly 5 weeks. We also examined the glucose levels in the plasma of these animals. For pharmacokinetic studies, we utilized wild type mice for both single and repeated administration study. Finally, pharmacokinetic studies were corroborated by data from single and repeated administration to monkeys.

[5] = Stability of ARI-001 stored at 50° C., purity by LC-MS; format: physicochemical
Protocol: ARI-001 was synthesized as described above. Purity was determined independently before use in experiments by examination via liquid chromatography-mass spectroscopy (LC-MS). A sample of material was dissolved in water/acetonitrile and injected onto a Discovery C-18 reverse phase column. The mobile phase began as 2%:98% acetonitrile:water, which was held for three minutes, after which a linear gradient was started that ran over 6 minutes, increasing the percent of acetonitrile until a final ratio of 98%:2% acetonitrile:water was reached. This final ratio was held for 3 minutes. The major peak was identified as ARI-001.
Stability was determined by storing ARI-001 under 50° C. with no specified humidity requirement. At various time points over the course of 3 months (90 days), a small sample (<5 mg) of ARI-001 was collected for analysis using LC-MS under the same conditions as used for purity determination (vide supra).

[6] = tested on: high fat-fed hamsters; assay: Liver function tests (AST, ALT) in plasma of high fat-fed hamsters dosed 18 days; format: in vivo, Golden Syrian hamster
Protocol: These animals were dosed for 18 consecutive days, while being on a HF/HS diet for a total of nearly 5 weeks. We also examined the glucose levels in the plasma of these animals. For pharmacokinetic studies, we utilized wild type mice for both single and repeated administration study. Finally, pharmacokinetic studies were corroborated by data from single and repeated administration to monkeys. […] AST and ALT were measured using commercially available kits (Bio-Quant Diagnostic Kits, San Diego, Calif.). As expected, AST and ALT values from untreated hamsters (vehicle group) were very high, as the high fat diet leads to hepatomegaly and fatty liver. This disease state is reflected in the elevated AST and ALT levels.

[7] = Pharmacokinetics of multiple administrations of ARI-001 to fasted monkeys; format: in vivo, Macaque monkeys; details: 288 mg/kg oral gavage once per day, seven days
Protocol: ARI-001 was administered to monkeys via oral gavage once per day for a total of seven days. Blood samples were collected after the first and after the last administrations to measure plasma concentrations of ARI-001.

[8] = Once daily vs twice daily dosing of ARI-001, plasma lipids in animal models; format: in vivo; details: ARI-001 given once daily
[9] = Single-dose pharmacokinetic study of ARI-001 in wild type mice (PO, IP); format: in vivo, C57BL/6 mice; details: oral gavage or intraperitoneal injection
Protocol: Plasma from the 19 hamsters dosed with ARI-001 in the above described 18-day study was analyzed for concentrations of ARI-001. Concentrations were determined for these samples, which were collected 24 hours after the final dose was administered. Briefly, plasma drug concentrations for the non-GLP pharmacokinetic experiments were determined by LC-MS using an Applied Biosystems 4000Qtrap spectrometer with electrospray ionization. Samples were prepared for analysis by precipitation of plasma proteins with cold methanol. HPLC of the samples was done with an Agilent Eclipse C18 column and a methanol/water gradient containing 0.1% formic acid and 5 mM ammonium acetate. ARI-001 was detected using multiple reaction monitoring (MRM) in the positive ion mode. For quantitation, a standard curve was measured by addition of known amounts of ARI-001 to plasma from untreated animals and preparing in a manner identical to the samples from treated animals. […] Pearson r values were determined using all data points, as was the two-tailed P-value for the data set.
Wild type C57BL/6 mice were dosed with a single administration of ARI-001 in solution either via oral gavage (PO) or via intraperitoneal injection (IP). Blood samples were then collected at various time points over a 24-hour period; plasma was then analyzed for concentrations of ARI-001 as described earlier. […]

## O=C(O)c1cccnc1 [Niacin, nicotinic acid]
[1]
  Cmax: about 30,000 ng/mL

## O=C(O)c1ccc(CCN2CCOCC2)nc1 [ARI-001]
[2]
  correlation between concentrations of ARI-001 in plasma versus adipose: highly statistically significant
  correlation between concentrations of ARI-001 in plasma versus liver: highly statistically significant
[3]
  Cmax levels and total 24-hour exposure (AUC) vs days of administration: time-independent
  Cmax levels and total 24-hour exposure (AUC) vs dose: dose-dependent
[4]
  glucose levels in comparison to the vehicle cohort: neither dose of ARI-001 produced any significant change
[5]; after 90 days
  purity of ARI-001 on storage: 95.9%
[5]; unregulated humidity, 65 days
  purity of ARI-001 on storage: 98.9%
[6]; ARI-001 2240 mg/kg
  AST in plasma vs vehicle: drastically reduced
[6]; ARI-001 1120 and 2240 mg/kg, dose-dependent
  ALT in plasma vs vehicle: similarly reduced
[7]
  Cmax value day 7 versus day 1: higher on day 7 than on day 1
  concentrations 24 hours after the first or the last doses: essentially identical
  plasma concentrations on day 1 versus day 7: very little difference
[8]
  changes in plasma lipids, once daily vs same total dose twice daily: greater than or equal to the lipid altering effects observed with the same total dose of ARI-001 given twice daily
[9]
  remaining plasma concentration of ARI-001 at the 24 hour timepoint: undetectable

Source: patent publication US9212142B2 (Trustees of Tufts College, priority 2010, dated 2015)
